Experimental data taken from paper PMC7484762 (2020).

Columns and labels:
[1] = tested on: 79-nt RNA ending at A79 (RNA, riboswitch) UAUCAGUUAUAUGACUGACGGAACGUGGAAUUAACCACAUGAAGUAUAACGAUGACAAUGCCGACCGUCUGGGCGAACA; assay: ITC; settings: 150 mM KCl, 10 mM MgCl2; 50 mM HEPES-KOH pH 7.4, 37 °C; apparent; exact value in Supplementary Figure 1b
[2] = tested on: 81-83, 92-94A (ligated, with 3' tether, annealed to biotin-DNA-Cy5) (DNA:RNA, riboswitch) UAUCAGUUAUAUGACUGACGGAACGUGGAAUUAACCACAUGAAGUAUAACGAUGACAAUGCCGACCGUCUGGGCGAACAAAAAUAGAUUGUAAAUUCAUUAGCGGUAUUCCGGAAUUGCCGUAAUCGCG/CGCGATTACGGCAATTCCGGAATACCGCTAATG; assay: smFRET; settings: 150 mM KCl, 10 mM MgCl2; 50 mM HEPES-KOH pH 7.4; thermally refolded; majority binds
[3] = tested on: 81-83A (ligated, with 3' tether, annealed to biotin-DNA-Cy5) (DNA:RNA, riboswitch) UAUCAGUUAUAUGACUGACGGAACGUGGAAUUAACCACAUGAAGUAUAACGAUGACAAUGCCGACCGUCUGGGCGAACAAAAAUAGAUUGUCGGUUCAUUAGCGGUAUUCCGGAAUUGCCGUAAUCGCG/CGCGATTACGGCAATTCCGGAATACCGCTAATG; assay: smFRET after vectorial folding (Rep-X); settings: 150 mM KCl, 10 mM MgCl2; 50 mM HEPES pH 7.4; larger bound fraction than WT
[4] = tested on: 92-94A (ligated, with 3' tether, annealed to biotin-DNA-Cy5) (DNA:RNA, riboswitch) UAUCAGUUAUAUGACUGACGGAACGUGGAAUUAACCACAUGAAGUAUAACGAUGACAAUGCCGACCGUCUGGGCGAACAAGCCUAGAUUGUAAAUUCAUUAGCGGUAUUCCGGAAUUGCCGUAAUCGCG/CGCGATTACGGCAATTCCGGAATACCGCTAATG; assay: smFRET; settings: 150 mM KCl, 10 mM MgCl2; 50 mM HEPES-KOH pH 7.4; thermally refolded; partially responsive
[5] = tested on: Δterm (ligated F. ulcerans ZTP aptamer with 3' tether, annealed to biotin-DNA-Cy5) (DNA:RNA, riboswitch) UAUCAGUUAUAUGACUGACGGAACGUGGAAUUAACCACAUGAAGUAUAACGAUGACAAUGCCGACCGUCUGGGCGUUCAUUAGCGGUAUUCCGGAAUUGCCGUAAUCGCG/CGCGATTACGGCAATTCCGGAATACCGCTAATG; assay: smFRET titration (TIRF), Langmuir fit; settings: 150 mM KCl, 10 mM MgCl2, 50 mM HEPES-KOH pH 7.4, thermally refolded, Pmax 71%, 1.5 μM after vectorial folding
[6] = tested on: WT (ligated F. ulcerans ZTP riboswitch with 3' tether, annealed to biotin-DNA-Cy5) (DNA:RNA, riboswitch) UAUCAGUUAUAUGACUGACGGAACGUGGAAUUAACCACAUGAAGUAUAACGAUGACAAUGCCGACCGUCUGGGCGAACAAGCCUAGAUUGUCGGUUCAUUAGCGGUAUUCCGGAAUUGCCGUAAUCGCG/CGCGATTACGGCAATTCCGGAATACCGCTAATG; assay: smFRET; settings: 150 mM KCl, 10 mM MgCl2; 50 mM HEPES-KOH pH 7.4; thermally refolded with 1 mM ZMP, ~10% bound; vectorially folded 38%

Kd [1]: ~ 1 μM
binding [2]: yes
binding [3]: yes
binding [4]: weak
SMILES: NC(=O)c1ncn([C@@H]2O[C@H](COP(=O)(O)O)[C@@H](O)[C@H]2O)c1N
apparent KD [5]: 1300 nM
binding [6]: weak
